Reference: US12509431B2, “1,4-dihydroquinazolinone compounds and uses thereof” (Edgewise Therapeutics, Inc., priority 2022, dated 2025)

How the values were obtained:
Assay type in all cases: biochemical
Conditions in all cases: Table 8
[1] = tested on: Rabbit Skeletal myofibrils (rabbit psoas muscle); assay: Myofibril ATPase assay (PK/LDH NADH-coupled), skeletal myofibrils
Method in brief: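 Rabbit psoas myofibrils in pCa (PIPES/CaCl2/EGTA, pH 7.0) buffer; ADP coupled via PK/LDH to NADH loss, read at 340 nm every 1.5–2 min for 75 min. Slopes normalized to vehicle (100%) and fit to 4-parameter logistic for EC25, plus EC50 for inhibitors.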

[2] = target: T1, Porcine Ventricle myofibrils (left ventricle of Yucatan minipigs) (Sus scrofa, UniProt P79293); assay: Myofibril ATPase assay (PK/LDH NADH-coupled), ventricle myofibrils
T1 construct: Myofibrils from porcine cardiac muscle was isolated from the left ventricle of Yucatan minipigs; tissue Exemplar Genetics; host or cells: left ventricle of Yucatan minipigs
Method in brief: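 Yucatan minipig left-ventricle myofibrils; ATPase measured by PK/LDH-coupled NADH loss at 340 nm, read every 1.5-2 min for 75 min. Slopes normalized to vehicle (100%) and fit to 4-parameter logistic model; EC25 and, for inhibitors, EC50 calculated.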

Porcine Atria myofibrils = assay: Myofibril ATPase assay (PK/LDH NADH-coupled), atria myofibrils
Method in brief: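 Porcine atrial myofibril ATPase followed via PK/LDH-coupled NADH depletion, absorbance at 340 nm read every 1.5-2 min over 75 min. Slopes (mAU/min) normalized to vehicle as 100% and fit to a 4-parameter logistic; EC25% derived, plus EC50% for inhibitors.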

T1 sequence (P79293 whole entry): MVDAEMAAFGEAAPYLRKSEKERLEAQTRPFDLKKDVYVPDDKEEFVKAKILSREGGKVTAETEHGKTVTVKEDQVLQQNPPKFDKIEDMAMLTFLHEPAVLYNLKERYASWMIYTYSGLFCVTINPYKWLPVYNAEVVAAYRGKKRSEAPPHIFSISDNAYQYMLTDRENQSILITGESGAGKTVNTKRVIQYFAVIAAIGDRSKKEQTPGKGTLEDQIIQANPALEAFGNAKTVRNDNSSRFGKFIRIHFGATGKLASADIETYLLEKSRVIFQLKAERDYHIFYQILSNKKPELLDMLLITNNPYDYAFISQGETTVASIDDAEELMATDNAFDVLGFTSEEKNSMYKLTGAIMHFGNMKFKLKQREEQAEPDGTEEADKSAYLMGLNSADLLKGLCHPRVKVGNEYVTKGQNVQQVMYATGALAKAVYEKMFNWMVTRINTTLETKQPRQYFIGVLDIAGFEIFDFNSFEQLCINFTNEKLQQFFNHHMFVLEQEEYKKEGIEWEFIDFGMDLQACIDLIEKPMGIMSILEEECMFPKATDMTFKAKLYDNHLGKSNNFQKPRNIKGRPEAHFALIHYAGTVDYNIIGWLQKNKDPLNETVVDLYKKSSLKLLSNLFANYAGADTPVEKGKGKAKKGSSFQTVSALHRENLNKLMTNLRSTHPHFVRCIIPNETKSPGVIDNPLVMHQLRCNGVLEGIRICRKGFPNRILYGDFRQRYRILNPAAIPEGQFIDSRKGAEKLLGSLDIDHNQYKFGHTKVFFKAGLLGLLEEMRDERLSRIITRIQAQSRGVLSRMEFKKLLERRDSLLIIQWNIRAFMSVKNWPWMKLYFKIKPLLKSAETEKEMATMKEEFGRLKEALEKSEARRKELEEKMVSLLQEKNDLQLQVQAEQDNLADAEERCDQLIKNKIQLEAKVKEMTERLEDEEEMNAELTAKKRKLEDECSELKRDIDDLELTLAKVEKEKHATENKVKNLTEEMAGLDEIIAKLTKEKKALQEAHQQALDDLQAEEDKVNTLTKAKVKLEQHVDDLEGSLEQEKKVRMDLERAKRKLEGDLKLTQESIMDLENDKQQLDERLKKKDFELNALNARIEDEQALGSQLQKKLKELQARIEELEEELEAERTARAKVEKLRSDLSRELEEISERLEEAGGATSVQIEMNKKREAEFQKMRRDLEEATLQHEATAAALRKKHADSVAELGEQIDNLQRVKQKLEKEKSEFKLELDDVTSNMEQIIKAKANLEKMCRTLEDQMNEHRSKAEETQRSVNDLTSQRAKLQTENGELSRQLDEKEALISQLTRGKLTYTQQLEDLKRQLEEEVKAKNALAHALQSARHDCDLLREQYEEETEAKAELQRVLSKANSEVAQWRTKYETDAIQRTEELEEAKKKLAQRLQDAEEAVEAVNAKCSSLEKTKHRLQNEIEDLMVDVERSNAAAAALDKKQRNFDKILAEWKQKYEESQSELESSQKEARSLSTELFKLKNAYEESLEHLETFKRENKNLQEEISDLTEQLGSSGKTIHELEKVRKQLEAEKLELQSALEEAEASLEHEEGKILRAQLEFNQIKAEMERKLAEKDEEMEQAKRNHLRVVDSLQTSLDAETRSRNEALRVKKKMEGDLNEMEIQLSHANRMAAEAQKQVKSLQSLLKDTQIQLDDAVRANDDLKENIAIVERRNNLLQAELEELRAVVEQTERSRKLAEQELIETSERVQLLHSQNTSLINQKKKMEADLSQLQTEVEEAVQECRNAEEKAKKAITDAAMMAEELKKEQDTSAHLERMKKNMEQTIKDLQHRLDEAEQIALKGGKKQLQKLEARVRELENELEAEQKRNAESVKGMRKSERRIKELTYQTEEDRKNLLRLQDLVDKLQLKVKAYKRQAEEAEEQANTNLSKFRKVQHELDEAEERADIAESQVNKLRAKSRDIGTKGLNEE

Structure (SMILES) | Rabbit Psoas IC25 [1] | Porcine Ventricle IC25 [2] | Porcine Atria IC25 (Porcine Atria myofibrils)
C[C@H](NC(=O)[C@@H](C)N1Cc2c(F)cccc2NC1=O)c1ccc(F)cc1F [Compound B223] | 1.426 µM | 3.783 µM | 0.44 µM
Cc1cc(F)ccc1[C@@H](C)NC(=O)CN1Cc2cc(F)ccc2NC1=O [Compound B224] | 3.991 µM | 100 µM | 28.57 µM
Cc1cc(F)ccc1[C@H](C)NC(=O)CN1Cc2cc(F)ccc2NC1=O [Compound B225] | 0.0175 µM | 0.1849 µM | 0.05 µM
C[C@H](NC(=O)CN1Cc2c(Br)cccc2NC1=O)c1ccc(F)cc1F [Compound B226] | 0.0244 µM | 0.2274 µM | 0.14 µM
C[C@H](NC(=O)[C@H](C)N1Cc2c(Br)cccc2NC1=O)c1ccc(F)cc1F [Compound B227] | 0.0127 µM | 0.2485 µM | 0.06 µM
C[C@H](NC(=O)[C@@H](C)N1Cc2c(Br)cccc2NC1=O)c1ccc(F)cc1F [Compound B228] | 0.2844 µM | 2.111 µM | 0.32 µM
C[C@H](NC(=O)CN1C(=O)Nc2ccccc2C12CC2)c1ccc(F)cc1F [Compound B229, N-[(1S)-1-(2,4-Difluorophenyl)ethyl]-2-{2′-oxo-1′H-spiro[cyclopropane-1,4′-quinazolin]-3′-yl}acetamide] | 0.0356 µM | 0.156 µM | 0.06 µM
C[C@H](NC(=O)CN1Cc2cc(F)ccc2NC1=O)c1ncc(F)cc1F [Compound B230] | 0.182 µM | 1.835 µM | 0.22 µM
C[C@H](NC(=O)CN1C(=O)Nc2ccc(F)cc2[C@H]1C(F)(F)F)c1ccc(F)cc1F [Compound B235] | 100 µM | 100 µM | 1.15 µM
C[C@H](NC(=O)[C@@H](C)N1Cc2c(ccc(F)c2F)NC1=O)c1ccc(F)cc1F [Compound B236] | 0.0333 µM | 0.2316 µM | 0.03 µM
C[C@H](NC(=O)[C@H](C)N1Cc2c(ccc(F)c2F)NC1=O)c1ccc(F)cc1F [Compound B237] | 0.3164 µM | 8.122 µM | 0.28 µM
C[C@H](NC(=O)CN1Cc2c(ccc(F)c2F)NC1=O)c1ccc(F)cc1F [Compound B238] | 0.0116 µM | 0.1435 µM | 0.03 µM
C[C@@H](NC(=O)[C@H](C)N1Cc2cc(F)ccc2NC1=O)c1ccc(F)cc1F [Compound B239] | 7.191 µM | 100 µM | 100.00 µM
C[C@H](C(=O)N[C@H](C)c1ccc(F)cc1F)N1Cc2cc(F)ccc2NC1=O [Compound B240] | 0.8825 µM | 100 µM | 25.37 µM
C[C@H](NC(=O)[C@@H](C)N1Cc2cc(F)ccc2NC1=O)c1ccc(F)cc1F [Compound B241] | 0.034 µM | 1.243 µM | 0.11 µM
C[C@H](NC(=O)[C@H](C)N1Cc2cc(F)ccc2NC1=O)c1ccc(F)cc1F [Compound B242] | 0.3555 µM | 100 µM | 58.71 µM
CC(C(=O)N[C@@H](C)c1ccc(F)cc1F)N1Cc2ccccc2NC1=O (stereo partly drawn) [Compound B243] | 10.96 µM | 11.52 µM | 0.19 µM

Structure (SMILES) | Rabbit Psoas IC25 [1] | Porcine Ventricle IC25 [2] | Porcine Atria IC25 (Porcine Atria myofibrils)
CC1c2ccccc2NC(=O)N1CC(=O)N[C@@H](C)c1ccc(F)cc1F (stereo partly drawn) [Compound B244, N-[(1S)-1-(2,4-Difluorophenyl)ethyl]-2-(4-methyl-2-oxo-1,4-dihydroquinazolin-3-yl)acetamide] | 0.695 µM | 4.818 µM | 2.50 µM
C[C@H](NC(=O)CN1C(=O)Nc2ccccc2C1(C)C)c1ccc(F)cc1F [Compound B245] | 9.295 µM | 11.66 µM | 0.94 µM
C[C@H](NC(=O)CN1C(=O)Nc2ccccc2C12CCCCC2)c1ccc(F)cc1F [Compound B246] | 19.62 µM | 73.7 µM | 100.00 µM
C[C@H](NC(=O)CN1Cc2c(F)cccc2NC1=O)c1ccc(F)cc1F [Compound B248, N-[(1S)-1-(2,4-Difluorophenyl)ethyl]-2-(5-fluoro-2-oxo-1,4-dihydroquinazolin-3-yl)acetamide] | 0.062 µM | 0.2832 µM | 0.05 µM
C[C@H](NC(=O)CN1Cc2ccccc2NC1=O)c1ccc(F)cc1F [Compound B249, N-[(1S)-1-(2,4-difluorophenyl)ethyl]-2-(2-oxo-1,4-dihydroquinazolin-3-yl)acetamide] | 0.02766 µM | 0.6589 µM | 0.07 µM
C[C@@H](NC(=O)CN1Cc2c(ccc(F)c2F)NC1=O)c1ncc(C(N)=O)cc1O [Compound B250] | 36.83 µM | 60.47 µM | 81.49 µM
C[C@@H](NC(=O)CN1Cc2cc(CN(C)C)ccc2NC1=O)c1ncc(C#N)cc1F [Compound B251] | 100.00 µM | 100.00 µM | 8.81 µM
C[C@H](NC(=O)CN1Cc2cc(CN(C)C)ccc2NC1=O)c1ncc(C#N)cc1F [Compound B252] | 36.83 µM | 60.47 µM | 81.49 µM
CNC(=O)N1CC2(C1)c1cc(F)ccc1NC(=O)N2CC(=O)N[C@H](C)c1ncc(C#N)cc1F [Compound B253] | 86.41 µM | 100.00 µM | 100.00 µM
CNC(=O)N1CC2(C1)c1cc(F)ccc1NC(=O)N2CC(=O)N[C@@H](C)c1ncc(C#N)cc1F [Compound B254] | 100.00 µM | 100.00 µM | 100.00 µM
CC(=O)N1CC2(C1)c1cc(F)ccc1NC(=O)N2CC(=O)N[C@H](C)c1ncc(C#N)cc1F [Compound B255] | 100.00 µM | 100.00 µM | 100.00 µM
CC(=O)N1CC2(C1)c1cc(F)ccc1NC(=O)N2CC(=O)N[C@@H](C)c1ncc(C#N)cc1F [Compound B256] | 39.41 µM | 46.27 µM | 75.74 µM
C[C@@H](NC(=O)CN1Cc2c(ccc(F)c2F)NC1=O)c1ncc(-n2ncnn2)cc1F [Compound B264] | 100.00 µM | 0.89 µM | 0.52 µM
C[C@H](NC(=O)CN1Cc2c(ccc(F)c2F)NC1=O)c1ncc(-n2ncnn2)cc1F [Compound B265] | 100.00 µM | 5.36 µM | 1.88 µM
C[C@@H](NC(=O)C(C)(C)N1Cc2c(ccc(F)c2F)NC1=O)c1ncc(C#N)cc1F [Compound B266] | 0.95 µM | 1.38 µM | 0.05 µM
C[C@H](NC(=O)C(C)(C)N1Cc2c(ccc(F)c2F)NC1=O)c1ncc(C#N)cc1F [Compound B267] | 18.40 µM | 3.96 µM | 0.18 µM
C[C@@H](NC(=O)C1(N2Cc3c(ccc(F)c3F)NC2=O)CC1)c1ncc(C#N)cc1F [Compound B268] | 6.91 µM | 3.06 µM | 0.11 µM
